# Key:
# human μ-opioid receptor = biological target: T1, human μ-opioid receptor (Homo sapiens, UniProt P35372); assay: cell-based; assay type: cell-based; conditions: CHO/μOR cells, n = 3
# T1 construct: expressed in transfected cells; host or cells: CHO (CHO/μOR cells)
# Protocol: The inhibition assay was performed as described previously. In brief, tested compound dilutions (with final concentrations of 100 µM, 50 µM, 10 µM, 1 µM, 500 nM, 100 nM, 50 nM, 10 nM, 1 nM, and 100 pM) were produced in saline or DMSO in triplicate. CHO/μOR cells were suspended in the assay buffer and counted, maintaining a cell density of 2000 cells per well, with 5 µL from each well seeded into a 384-well plate. Subsequently, 5 µL of the tested compound solution per well was dispensed into the plate, which was then placed in a 25 °C incubator and incubated in the dark for 30 min. Next, 10 µL of cAMP standard working solution was added to the empty wells of the plate, followed by the addition of 5 µL of Eu-cAMP and Anti-cAMP per well. The plate was subsequently placed back in a 25 °C incubator and further incubated in the dark for 1 h.
# CHO cells expressing the human μ-opioid receptor were cultivated for the assessment of compound effects. […] Cells collected during the exponential phase of growth were dissociated without enzymes to preserve receptor integrity, resuspended in assay buffer, and counted to achieve a uniform concentration. Cell density was adjusted to 2000 cells per well in a 384-well plate, promoting uniform distribution and optimal receptor presence. Post-seeding at 25 °C in darkness facilitated cell adherence and stabilization prior to compound introduction. Compounds were added in serial dilutions, with meticulous dispensing techniques ensuring dose uniformity. Following a 1 h incubation at 25 °C, TR-FRET reagents were applied to measure cAMP levels, indicative of μOR activity. The Envision system recorded these levels, quantifying compound inhibitory effects. Meticulous aseptic techniques and vigilant monitoring were imperative throughout to guarantee data precision from the assay.
# [1] = biological target: T2, human μOR β-arrestin2 pathway (Homo sapiens, UniProt P35372); assay: cell-based; assay type: cell-based; conditions: U2OS/human μOR β-arrestin cells, n = 3
# T2 construct: β-galactosidase enzyme fragment (PathHunter complementation tag); host or cells: U2OS (U2OS/human μOR β-arrestin cells)
# Protocol: In this assay, optical signal values were detected employing the PathHunter® (DiscoverX, Shanghai, China) Detection Kit assay method. The agonistic activity of tested compounds on the human μOR β-arrestin2 pathway was quantified using a β-galactosidase-based enzyme fragment complementation assay. In brief, tested compound dilutions (with final concentrations of 100 μM, 50 μM, 10 μM, 1 μM, 500 nM, 100 nM, 50 nM, 10 nM, 1 nM, and 100 pM) were produced in saline or DMSO in triplicate. Next, 100 nL of the tested compound solution per well was dispensed into a 384-well cell culture plate. The U2OS/human μOR β-arrestin cells were resuspended in Opti-MEM and counted to achieve a cell density of 4000 cells per well, and 20 μL from each well was seeded into the 384-well cell culture plate. The plate was subsequently incubated at 37 °C in the dark for 120 min. Post-incubation, the cell plate was equilibrated to room temperature for 10–20 min, and 5 μL of the detection reagent were added to each well. Following a 60 min incubation at 25 °C, chemiluminescent readings were obtained using the envision system.
# The cells were maintained at 37 °C with 5% CO2 in McCoy’s 5a medium with supplements and cultivated utilizing precise techniques to ensure accurate, reproducible results. Cells were gently dissociated for assays to maintain receptor integrity and resuspended in Opti-MEM® for compatibility with the PathHunter® (DiscoverX, Shanghai, China). Detection Kit. Cell density was adjusted to 4000 cells per well in a 384-well plate, to ensure that a uniform monolayer was established for the β-galactosidase assay. After seeding and incubation in the dark at 37 °C to facilitate cell attachment, the plates were equilibrated to room temperature prior to compound treatment. Serial dilutions of the compounds were assessed for pharmacological effect. A detection reagent was then added to measure β-galactosidase activity as indicative of μ-opioid receptor and β-arrestin2 interaction. Following reagent incubation, chemiluminescence was quantified, providing quantitative data on compound agonistic activity. Throughout, meticulous aseptic technique and strict adherence to protocols were imperative to ensure the integrity of the pharmacological data derived from these studies.
# mice [2] = assay: Acetic acid-induced writhing test; assay type: in vivo, CD-1 mice; conditions: 20 mg/kg i.v. tail vein
# Protocol: (§1) Food and water were provided ad libitum.
# The acetic acid-induced writhing test was performed as described previously. In brief, after pretreatment with the test compound at a dose of 20 mg/kg via intravenous tail vein injection, 1% (v/v) glacial acetic acid was administered intraperitoneally (i.p.) at a dose of 10 mL/kg. Subsequently, the number of writhing responses over a 20 min period was recorded. The antinociception rate was calculated as the percentage of maximal possible effect (%MPE), where %MPE = 100 × (NWV − NWT)/NWV. NWV and NWT represent the average number of writhing responses of the vehicle and test groups, respectively.
# mice [3] = assay: Hot-water tail withdrawal test; assay type: in vivo, CD-1 mice; conditions: 20 mg/kg i.v. tail vein, 15 min post administration
# Protocol: as §1
# The hot-water tail withdrawal test was performed as described previously. In brief, the hot-water tail withdrawal test was conducted using a water bath maintained at 55 ± 0.5 °C. The distal 3 cm section of the mouse’s tail was immersed perpendicularly into the hot water. The duration for which the tail remained in the water was recorded as the initial tail withdrawal latency (TWL0). […] Following the administration of a single dose of the test compound (20 mg/kg, i.v.) or vehicle, the subsequent tail withdrawal latency (TWL) was measured at various time intervals (15, 30, 45, 60, and 90 min). To prevent potential tissue damage, a maximum cutoff latency of 16 s was enforced. Antinociception was quantified using the percentage of maximal possible effect (%MPE), calculated as %MPE = 100 × (TWL − TWL0)/(16 − TWL0).
# mice [4] = assay: Formalin paw-licking test; assay type: in vivo, CD-1 mice; conditions: 20 mg/kg i.v. tail vein, Phase II
# Protocol: as §1
# The formalin injection assay was performed as described previously. […] After 15 min, 30 µL of a 2.7% formalin solution was administered into the right hind paw of each mouse. Then, the mice were put into the cage and their behaviors were observed. The antinociception rate was quantified as the percentage of maximal possible effect (%MPE), calculated as %MPE = 100 × (PLTV − PLTT)/PLTV; PLTV and PLTT represent the average paw-licking duration during Phase II for the vehicle and test groups, respectively.
# mice [5] = assay: Respiratory depression (blood pO2, blood gas analyzer); conditions: single i.v. dose 20 mg/kg (morphine 4 mg/kg), 5-40 min
# Protocol: (§2) The mice were group-housed in a controlled temperature environment and subjected to a 12 h light/dark cycle (lights on from 07:00 to 19:00). Food and water were provided ad libitum. All animal procedures were conducted in accordance with the policies and recommendations of the International Association for the Study of Pain and the National Health and Animal Welfare Committee of the Beijing Institute of Pharmacology, with the aim of minimizing the number of animals used and their suffering.
# mice [6] = assay: Physical dependence (naloxone-precipitated withdrawal jumping); conditions: i.v. once daily for 5 days, PZM21 and 6a 20 mg/kg, morphine 2 mg/kg, jumps over 20 min
# Protocol: as §2
# T2 sequence (P35372 whole entry, the tested form may be a part): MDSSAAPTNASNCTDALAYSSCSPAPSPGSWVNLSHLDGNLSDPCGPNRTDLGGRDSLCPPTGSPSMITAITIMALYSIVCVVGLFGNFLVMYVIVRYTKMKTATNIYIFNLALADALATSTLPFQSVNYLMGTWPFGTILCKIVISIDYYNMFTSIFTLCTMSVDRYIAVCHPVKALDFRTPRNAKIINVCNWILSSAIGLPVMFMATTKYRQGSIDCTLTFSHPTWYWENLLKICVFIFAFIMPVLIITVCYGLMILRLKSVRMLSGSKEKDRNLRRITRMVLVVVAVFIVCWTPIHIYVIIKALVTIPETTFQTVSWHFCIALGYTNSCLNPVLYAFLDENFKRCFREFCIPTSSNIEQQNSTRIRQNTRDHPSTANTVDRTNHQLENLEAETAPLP
# T1 sequence (P35372 whole entry): as the sequence (P35372 whole entry, the tested form may be a part) above
compound,measurement,setting,value
"CN(C)[C@H](CNC(=O)NCc1ccccc1)Cc1cccc2ccccc12 [6a, (S)-1-benzyl-3-(2-(dimethylamino)-3-(naphthalen-1-yl)propyl) urea]",EC50,"human μ-opioid receptor; cAMP inhibition, ""-"" = no measurable activity, read-out: EC50 (nM) (95% CI), µOR-Gi/o activation assay",10.8 nM
same,Emax,"human μ-opioid receptor; at the concentration printed in parentheses in the cell, read-out: Max Effect ± SEM (%), µOR-Gi/o activation assay",51.9 ± 1.06%
same,Emax,"[1]; at the concentration printed in parentheses in the cell, read-out: Max Effect ± SEM (%), µOR β-arrestin recruitment assay",0.38 ± 0.21%
same,EC50,"[1]; ""-"" = no measurable activity, read-out: EC50 (nM) (95% CI), µOR β-arrestin recruitment assay",> 100000 nM
same,"analgesia rate (%MPE), acetic acid-induced writhing",mice [2],exceeding 97%
same,"pain inhibition rate (%MPE), hot-water tail-withdrawal test",mice [3],50.19%
same,"antinociceptive efficacy (%MPE), formalin-induced paw licking, second phase",mice [4],73.80%
same,respiratory depression: partial pressure of oxygen in blood vs vehicle,mice [5],does not induce acute respiratory depression
same,physical dependence: jumping after naloxone-precipitated withdrawal vs vehicle,mice [6],does not induce physical dependence or withdrawal symptoms

# — paper PMC11243066, “Synthesis and Biological Evaluation of Novel Biased Mu-Opioid Receptor Agonists” (Molecules, 2024)
